The record followed here is patent US7704995B2 (Exelixis, Inc., priority 2003, dated 2010).

The experiment has as its target T1, Chk1 (Homo sapiens, UniProt O14757).
T1 construct: purchased Upstate Biotechnology
T1 sequence (O14757 1-476): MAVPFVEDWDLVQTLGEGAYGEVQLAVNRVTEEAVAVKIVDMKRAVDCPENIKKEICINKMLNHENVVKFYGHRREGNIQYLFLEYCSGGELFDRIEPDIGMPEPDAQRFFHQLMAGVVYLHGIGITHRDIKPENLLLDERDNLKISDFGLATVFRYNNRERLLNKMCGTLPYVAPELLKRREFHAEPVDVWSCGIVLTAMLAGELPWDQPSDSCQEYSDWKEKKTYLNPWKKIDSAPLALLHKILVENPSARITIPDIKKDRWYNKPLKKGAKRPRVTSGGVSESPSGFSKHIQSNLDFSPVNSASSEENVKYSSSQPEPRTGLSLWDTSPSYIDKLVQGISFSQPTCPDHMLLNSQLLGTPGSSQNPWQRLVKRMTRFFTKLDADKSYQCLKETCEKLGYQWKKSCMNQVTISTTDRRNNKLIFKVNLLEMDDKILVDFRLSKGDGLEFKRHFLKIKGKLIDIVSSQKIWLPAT
Kind of experiment: Chk1 kinase assay: incorporation of γ-33P ATP into immobilized myelin basic protein. In kind it is biochemical. As to conditions: Table 11; Chk1 only; read-out: Chk1 IC50. The procedure, abridged: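 Chk1 (10 nM) or Chk2 (20 nM) phosphorylated plate-immobilized myelin basic protein for 1 h at room temperature in Hepes pH 7.6 buffer with MgCl2, DTT, 1% DMSO, γ-33P ATP plus 10 μM (Chk1) or 30 μM (Chk2) unlabeled ATP. Bound radioactivity counted by scintillation; IC50 determined, Ki derivable from IC50.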

One may read the IC50 as the concentration needed to halve the response being measured. For the compound `CC(C)(C)OC(=O)N1CCCC(NC(=O)c2nc(-c3cccc(C(=O)N[C@@H]4c5ccccc5C[C@@H]4O)c3)cnc2N)CC1` (stereo partly drawn) [Example 781, 1,1-dimethylethyl 4-[({3-amino-6-[3-({[(1R,2S)-2-hydroxy-2,3-dihydro-1H-inden-1-yl]amino}carbonyl)phenyl]pyrazin-2-yl}carbonyl)amino]azepane-1-carboxylate], the IC50 lay within 0.05 to 1 µM.
In the case of `Nc1ncc(-c2cccc(C(=O)N[C@@H]3c4ccccc4C[C@@H]3O)c2)nc1C(=O)NC1CCCNCC1` (stereo partly drawn) [Example 782, 3-amino-N-azepan-4-yl-6-[3-({[(1R,2S)-2-hydroxy-2,3-dihydro-1H-inden-1-yl]amino}carbonyl)phenyl]pyrazine-2-carboxamide] it was below 0.05 µM; in that of `Nc1ncc(-c2cccc(C3=N[C@@H]4c5ccccc5C[C@@H]4O3)c2)nc1C(=O)NC1CCCNCC1` (stereo partly drawn) [Example 783, 3-amino-N-azepan-4-yl-6-{3-[(3aR,8aS)-8,8a-dihydro-3aH-indeno[1,2-d][1,3]oxazol-2-yl]phenyl}pyrazine-2-carboxamide], 0.05 to 1 µM.
As for `Nc1ncc(-c2cccc(C(=O)N[C@H]3CCc4ccccc43)c2)nc1C(=O)NC[C@H]1CCNC1` [Example 785, 3-amino-6-(3-{[(1S)-2,3-dihydro-1H-inden-1-ylamino]carbonyl}phenyl)-N-[(3S)-pyrrolidin-3-ylmethyl]pyrazine-2-carboxamide], the IC50 is below 0.05 µM.
In the case of `CC(C)(C)OC(=O)N1CC[C@H](CNC(=O)c2nc(-c3cccc(C(=O)N[C@@H]4c5ccccc5C[C@@H]4O)c3)cnc2N)C1` [Example 786, 1,1-dimethylethyl (3R)-3-{[({3-amino-6-[3-({[(1R,2S)-2-hydroxy-2,3-dihydro-1H-inden-1-yl]amino}carbonyl)phenyl]pyrazin-2-yl}carbonyl)amino]methyl}pyrrolidine-1-carboxylate] it was at least 10 µM; in that of `Nc1ncc(-c2cccc(C(=O)N[C@@H]3c4ccccc4C[C@@H]3O)c2)nc1C(=O)NC[C@H]1CCNC1` [Example 787, 3-amino-6-[3-({[(1R,2S)-2-hydroxy-2,3-dihydro-1H-inden-1-yl]amino}carbonyl)phenyl]-N-[(3S)-pyrrolidin-3-ylmethyl]pyrazine-2-carboxamide], below 0.05 µM; in that of `CNC(=O)c1nc(-c2cc(F)cc(C(=O)N[C@H]3CCc4ccccc43)c2)cnc1N` [Example 788, 3-amino-6-(3-{[(1S)-2,3-dihydro-1H-inden-1-ylamino]carbonyl}-5-fluorophenyl)-N-methylpyrazine-2-carboxamide], 0.05 to 1 µM.
With `CNC(=O)c1nc(-c2cc(C(=O)O)cc(C(=O)OC)c2)cnc1N` [Example 789, 3-{5-amino-6-[(methylamino)carbonyl]pyrazin-2-yl}-5-[(methyloxy)carbonyl]benzoic acid], the IC50 was in the range of 1 to 10 µM.
`CNC(=O)c1nc(-c2cc(C(=O)N[C@H]3CCc4ccccc43)cc(C(=O)OC)c2)cnc1N` [Example 790, methyl 3-{5-amino-6-[(methylamino)carbonyl]pyrazin-2-yl}-5-{[(1S)-2,3-dihydro-1H-inden-1-ylamino]carbonyl}benzoate]: the IC50 lay within 0.05 to 1 µM.
As for `CNC(=O)c1nc(-c2cc(C(=O)NC3CCNC3)cc(C(=O)N[C@H]3CCc4ccccc43)c2)cnc1N` (stereo partly drawn) [Example 791, 5-{5-amino-6-[(methylamino)carbonyl]pyrazin-2-yl}-N-[(1S)-2,3-dihydro-1H-inden-1-yl]-N′-pyrrolidin-3-ylbenzene-1,3-dicarboxamide], the IC50 lay within 0.05 to 1 µM.
Consider `Nc1ncc(-c2cccc(C(=O)NCc3ccccc3)c2)nc1-c1nc(-c2ccccc2)n(-c2ccccn2)n1` [Example 792, 3-[5-amino-6-(5-phenyl-1-pyridin-2-yl-1H-1,2,4-triazol-3-yl)pyrazin-2-yl]-N-(phenylmethyl)benzamide], for which the half-maximal inhibitory concentration (IC50) was in the range of 1 to 10 µM.
